Test results as given in ChEMBL document CHEMBL1154698, “Discovery of 3-aryl-4-isoxazolecarboxamides as TGR5 receptor agonists” (J Med Chem, 2009).
Converted amounts (≈) assume the structure as drawn. Blank lines part the entries; values can stand above or below the molecule they belong to. The source made the active and inactive calls. No cut-off for these calls is given here.

Assays:
[1] = Intrinsic clearance in dog hepatocytes; format: ADME, cell-based, Canis lupus familiaris, Liver, Hepatocyte
Melanophore = test: Induction of melanosome dispersion in melanophores; format: functional, cell-based; details: Xenopus laevis
Cytochrome P450 2D6 = Cytochrome P450 2D6 (Homo sapiens, UniProt P10635); test: Inhibition of CYP2D6; format: ADME
Sequence of Cytochrome P450 2D6 (P10635 whole entry): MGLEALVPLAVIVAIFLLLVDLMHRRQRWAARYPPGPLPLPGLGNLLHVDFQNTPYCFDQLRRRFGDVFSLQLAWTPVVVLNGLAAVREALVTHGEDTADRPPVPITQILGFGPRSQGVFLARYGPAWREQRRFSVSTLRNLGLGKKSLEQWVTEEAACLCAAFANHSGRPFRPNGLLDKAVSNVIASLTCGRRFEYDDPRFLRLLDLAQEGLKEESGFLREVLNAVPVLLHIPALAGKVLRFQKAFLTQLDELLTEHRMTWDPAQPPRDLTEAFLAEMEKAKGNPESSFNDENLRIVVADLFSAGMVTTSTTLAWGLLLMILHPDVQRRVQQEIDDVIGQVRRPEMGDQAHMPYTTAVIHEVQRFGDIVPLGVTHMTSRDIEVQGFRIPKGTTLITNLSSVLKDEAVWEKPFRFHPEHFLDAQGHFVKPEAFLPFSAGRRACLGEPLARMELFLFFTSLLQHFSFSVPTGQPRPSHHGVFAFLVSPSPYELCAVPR

[2] = Volume of distribution at steady state in CD1 rat at 2.5 mg/kg, iv or 5 mg/kg, po; format: ADME, organism-based; details: in vivo, read-out: Vdss
[3] = Permeability in artificial membrane assay; format: ADME, cell membranes
Cytochrome P450 2C9 = Cytochrome P450 2C9 (Homo sapiens, UniProt P11712); test: Inhibition of CYP2C9; format: ADME
Sequence of Cytochrome P450 2C9 (P11712 whole entry): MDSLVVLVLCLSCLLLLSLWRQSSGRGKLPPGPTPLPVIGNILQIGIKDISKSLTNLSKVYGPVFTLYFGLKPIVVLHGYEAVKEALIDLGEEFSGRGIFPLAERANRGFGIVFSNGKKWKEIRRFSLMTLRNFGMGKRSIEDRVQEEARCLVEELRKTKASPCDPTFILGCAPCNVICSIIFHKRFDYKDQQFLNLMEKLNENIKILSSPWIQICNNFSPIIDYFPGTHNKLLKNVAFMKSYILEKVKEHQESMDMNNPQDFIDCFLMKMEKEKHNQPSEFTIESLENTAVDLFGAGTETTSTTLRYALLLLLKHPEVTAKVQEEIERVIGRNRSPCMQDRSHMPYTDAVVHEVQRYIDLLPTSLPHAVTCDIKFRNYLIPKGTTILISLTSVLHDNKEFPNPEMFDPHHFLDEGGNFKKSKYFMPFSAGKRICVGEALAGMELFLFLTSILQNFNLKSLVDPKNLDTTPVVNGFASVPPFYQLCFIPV

[4] = Oral bioavailability in CD1 rat 5 mg/kg; format: ADME, organism-based; details: in vivo
Canis familiaris [5] = test: Decrease in portal vein glucose levels in intrajejeunally dosed conscious Beagle dog at 1 mg.kg co-administered with glucose challenge; format: functional, organism-based; details: Canis lupus familiaris
[6] = Agonist activity at canine TGR5 expressed in melanophores assessed as melanosome dispersion by melanophore assay; format: functional, Canis lupus familiaris
U2OS = test: Increase in MRE/CRE-driven gene expression in human U2OS cells by luciferase reporter gene assay; format: functional, cell-based
Monocyte = test: Inhibition of LPS-stimulated TNFalpha secretion in human primary monocytes; format: functional, cell-based
[7] = Clearance in CD1 rat at 2.5 mg/kg, iv or 5 mg/kg, po; format: ADME, organism-based; details: in vivo
[8] = Intrinsic clearance in rat hepatocytes; format: ADME, cell-based, Liver, Hepatocyte
[9] = Aqueous solubility of the compound; format: physicochemical; details: buffer
[10] = target: T1, G-protein coupled bile acid receptor 1 (Rattus norvegicus, UniProt Q80T02); test: Agonist activity at rat TGR5 expressed in melanophores assessed as melanosome dispersion by melanophore assay; format: functional
T1 sequence (Q80T02 whole entry): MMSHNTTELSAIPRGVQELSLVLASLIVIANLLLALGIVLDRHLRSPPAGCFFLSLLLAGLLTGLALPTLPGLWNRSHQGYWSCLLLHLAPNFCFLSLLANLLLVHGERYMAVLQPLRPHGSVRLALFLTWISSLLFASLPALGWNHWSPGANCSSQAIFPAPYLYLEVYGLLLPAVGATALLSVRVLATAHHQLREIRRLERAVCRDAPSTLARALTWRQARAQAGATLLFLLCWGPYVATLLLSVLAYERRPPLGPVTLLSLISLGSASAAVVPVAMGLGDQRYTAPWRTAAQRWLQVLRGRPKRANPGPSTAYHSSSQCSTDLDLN

[11] = Half life in CD1 rat at 2.5 mg/kg, iv or 5 mg/kg, po; format: ADME, organism-based; details: in vivo
Canis familiaris [12] = test: Increase in GLP1 secretion in hepatic portal vein of intrajejeunally dosed conscious Beagle dog at 1 mg.kg co-administered with glucose challenge; format: functional, organism-based; details: Canis lupus familiaris
[13] = Volume of distribution at steady state in CD1 rat at 3 mg/kg, iv or 30 mg/kg, po; format: ADME, organism-based; details: in vivo, read-out: Vdss
[14] = Half life in dog at 3 mg/kg, iv or 30 mg/kg, po; format: ADME, organism-based, Canis lupus familiaris; details: in vivo
[15] = Clearance in dog at 3 mg/kg, iv or 30 mg/kg, po; format: ADME, organism-based, Canis lupus familiaris; details: in vivo
[16] = Oral bioavailability in CD1 rat at 30 mg/kg; format: ADME, organism-based; details: in vivo
[17] = Volume of distribution at steady state in dog at 3 mg/kg, iv or 30 mg/kg, po; format: ADME, organism-based, Canis lupus familiaris; details: in vivo, read-out: Vdss
[18] = Clearance in CD1 rat at 3 mg/kg, iv or 30 mg/kg, po; format: ADME, organism-based; details: in vivo
[19] = Half life in CD1 rat at 3 mg/kg, iv or 30 mg/kg, po; format: ADME, organism-based; details: in vivo
[20] = Oral bioavailability in dog at 30 mg/kg; format: ADME, organism-based, Canis lupus familiaris; details: in vivo

CLint [1]: 90 mL/min/g
EC50 (Melanophore): 20 µM
IC50 (Cytochrome P450 2D6): > 10 µM
Vd [2]: 7.1 L/kg
permeability [3]: 422 nanometer/sec
IC50 (Cytochrome P450 2C9): > 10 µM
bioavailability [4]: 1%
pEC50 [6]: 7.2
EC50 (U2OS): > 50.1 µM
IC50 (Monocyte): 158 nM
clearance [7]: 85 mL/min/kg
CLint [8]: 48 mL/min/g
solubility [9]: 246 µM (≈ 88.9 µg/mL)
EC50 [10]: 2000 nM
half-life [11]: 396 min
Compound: Cc1onc(-c2ccccc2Cl)c1C(=O)N(C)c1ccc(Cl)cc1
Activity (Canis familiaris [5]): Active
Activity (Canis familiaris [12]): Active

permeability [3]: 310 nanometer/sec
solubility [9]: 134 µM (≈ 50.3 µg/mL)
Compound: CCN(C(=O)c1c(-c2ccccc2Cl)noc1C)c1cccc(Cl)c1

Vd [13]: 40 L/kg
CLint [1]: 111 mL/min/g
permeability [3]: 257 nanometer/sec
half-life [14]: 312 min
clearance [15]: 39 mL/min/kg
bioavailability [16]: < 1%
Vd [17]: 8.6 L/kg
CLint [8]: 54 mL/min/g
solubility [9]: 112 µM (≈ 42 µg/mL)
clearance [18]: 148 mL/min/kg
half-life [19]: 522 min
bioavailability [20]: 0.3%
Compound: Cc1ccc(N(C)C(=O)c2c(-c3ccccc3Cl)noc2C)cc1Cl
